Measured values published in ChEMBL document CHEMBL6096692, “Discovery of 2(1H)-Quinoxalinone Derivatives as Potent and Selective MAT2A Inhibitors for the Treatment of MTAP-Deficient Cancers” (J Med Chem, 2025).
Values joined by “and” are separate entries in the source; they are usually repeats but may differ in a detail not shown here. Identical values can stand only once. Active and inactive are the calls of the source. The rule behind the calls is not given here.

Experiments:
[1] = biological target: S-adenosylmethionine synthase isoform type-2 (Homo sapiens, UniProt P31153); test: Inhibition of MAT2A (unknown origin) using L-methionine and ATP as substrate preincubated with compound for 10 mins followed by substrate addition and measured after 60 mins by kinase-glo max reagent based microplate reader analysis
Sequence of S-adenosylmethionine synthase isoform type-2 (P31153 whole entry, canonical isoform): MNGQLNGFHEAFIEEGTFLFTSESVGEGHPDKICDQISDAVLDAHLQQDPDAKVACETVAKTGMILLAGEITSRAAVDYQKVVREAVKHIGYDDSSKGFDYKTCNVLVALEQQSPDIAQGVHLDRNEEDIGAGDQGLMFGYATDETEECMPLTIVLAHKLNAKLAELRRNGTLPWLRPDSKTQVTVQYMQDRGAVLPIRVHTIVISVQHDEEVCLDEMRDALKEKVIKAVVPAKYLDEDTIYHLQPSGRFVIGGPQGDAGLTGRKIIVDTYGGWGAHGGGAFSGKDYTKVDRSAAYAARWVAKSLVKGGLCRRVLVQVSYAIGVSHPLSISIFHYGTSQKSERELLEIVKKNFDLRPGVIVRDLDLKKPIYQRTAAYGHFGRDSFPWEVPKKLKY

[2] = Selectivity index, ratio of IC50 for antiproliferative activity against mouse B16-F10 cells harboring wild type MTAP assessed as inhibition of cell viability to IC50 for antiproliferative activity against MTAP knockout mouse B16-F10 cells assessed as inhibition of cell viability; format: functional
B16-F10 [3] = test: Antiproliferative activity against mouse B16-F10 cells harboring wild type MTAP assessed as inhibition of cell viability measured for 96 hrs by SRB assay; format: functional, cell-based; details: B16-F10, 96 h
B16-F10 [4] = test: Antiproliferative activity against MTAP knockout mouse B16-F10 cells assessed as inhibition of cell viability measured for 96 hrs by SRB assay; format: functional, cell-based; details: B16-F10, 96 h
MIA PaCa-2 = test: Antitumor activity against MTAP null human MIA PaCa-2 cells xenografted in mouse assessed as tumor growth inhibition at 30 to 60 mg/kg, po measured after 28 days; format: functional, organism-based; details: dose 30-60 mg/kg, time 28.0 day
SF-126 = test: Induction of DNA damage in human SF-126 cells harboring wild type MTAP assessed as increase in gammaH2AX level at 0.1 to 10 uM measured for 96 hrs by Western blot analysis; format: functional, cell-based; details: dose 0.1-10 µM

| IC50 [1] | IC50 (B16-F10 [3]) | IC50 (B16-F10 [4]) | SMILES | Ratio IC50 [2] | Activity (MIA PaCa-2) | Activity (SF-126) |
| --- | --- | --- | --- | --- | --- | --- |
| 63.4 nM | > 20 µM | 310 nM | Cn1cnc2ccc(-c3nc4cnc(NCC(F)(F)F)nc4n(-c4ccc(OC(F)F)cc4)c3=O)cc21 | >64.5 |  |  |
| 38.8 nM | > 20 µM | 1250 nM | Cn1cc2cc(-c3nc4cnc(NCC(F)(F)F)nc4n(-c4ccc(OC(F)F)cc4)c3=O)ccc2n1 | >16 |  |  |
| 28.9 nM | 9.07 µM | 1520 nM | Cn1nnc2ccc(-c3nc4ccc(C5CC5)cc4n(-c4ccc(OC(F)F)cc4)c3=O)cc21 | 3.8 |  |  |
| > 1000 nM |  |  | COc1ccc(-c2nc3cnc(NCC(F)(F)F)nc3n(-c3ccc(C(F)(F)F)cc3)c2=O)cc1 |  |  |  |
| 613 nM | 7.24 µM | 2960 nM | Cn1cnc2ccc(-c3nc4cnc(NCC5CC5)nc4n(-c4ccc(OC(F)F)cc4)c3=O)cc21 | 2.4 |  |  |
| > 1000 nM |  |  | COc1ccc(-c2nc3cnc(NCC(F)(F)F)nc3n(-c3ccc(OC(F)F)nc3)c2=O)cc1 |  |  |  |
| > 1000 nM |  |  | COc1ccc(-c2nc3cnc(NCC(F)(F)F)nc3n(-c3cccc(OC(F)F)c3)c2=O)cc1 |  |  |  |
| 228 nM |  |  | Cn1cnc2ccc(-c3nc4ccc(C5CCC5)cc4n(-c4ccc(OC(F)F)cc4)c3=O)cc21 |  |  |  |
| 103 nM | 14.9 µM | 1130 nM | O=c1c(-c2ccc3nncn3c2)nc2ccc(C3CC3)cc2n1-c1ccc(OC(F)F)cc1 | 13.2 |  |  |
| 83 nM | 16.6 µM | 400 nM | O=c1c(-c2ccc3ncn(C4CC4)c3c2)nc2cnc(NCC(F)(F)F)nc2n1-c1ccc(OC(F)F)cc1 | 41.4 |  |  |
| > 1000 nM |  |  | COc1ccc(-c2nc3cnc(NCC(F)(F)F)nc3n(-c3ccc(OCC(F)F)cc3)c2=O)cc1 |  |  |  |
| 89 nM | > 20 µM | 2480 nM | O=c1c(-c2ccc3c(c2)CCO3)nc2cnc(NCC(F)(F)F)nc2n1-c1ccc(OC(F)F)cc1 | >8.1 |  |  |
| 81.4 nM | 13.9 µM | 1340 nM | O=c1c(-c2ccn3nccc3c2)nc2ccc(C3CC3)cc2n1-c1ccc(OC(F)F)cc1 | 10.4 |  |  |
| 89 nM | > 20 µM | 2480 nM | COc1ccc2nc(-c3ccc4ncn(C)c4c3)c(=O)n(-c3ccc(OC(F)F)cc3)c2c1 | >8.1 |  |  |
| 100 nM | > 20 µM | 3300 nM | COc1ccc(-c2nc3cnc(NCC(F)(F)F)nc3n(-c3ccc(OC(F)F)cc3)c2=O)cc1 | >6.1 |  |  |
| 79.2 nM | > 20 µM | 4360 nM | Cn1cc2cc(-c3nc4ccc(C5CC5)cc4n(-c4ccc(OC(F)F)cc4)c3=O)ccc2n1 | >4.6 |  |  |

| IC50 [1] | IC50 (B16-F10 [3]) | IC50 (B16-F10 [4]) | SMILES | Ratio IC50 [2] | Activity (MIA PaCa-2) | Activity (SF-126) |
| --- | --- | --- | --- | --- | --- | --- |
| 37.7 nM | > 20 µM | 1670 nM | O=c1c(-c2ccc3c(c2)CCCO3)nc2cnc(NCC(F)(F)F)nc2n1-c1ccc(OC(F)F)cc1 | >12 |  |  |
| 23.1 nM | 0.8 µM | 210 nM | Cn1cnc2ccc(-c3nc4ccc(C5CC5)nc4n(-c4ccc(OC(F)F)cc4)c3=O)cc21 | 3.8 |  |  |
| 138 nM | 3.33 µM | 370 nM | CC(C)n1cnc2ccc(-c3nc4ccc(C5CC5)cc4n(-c4ccc(OC(F)F)cc4)c3=O)cc21 | 9 |  |  |
| 56.1 nM | 2.15 µM | 330 nM | COc1ccc(-n2cc3cnc(NCC(F)(F)F)nc3c(-c3ccc(Br)cc3)c2=O)cc1 | 6.5 | Active | inactive |
| 138 nM | > 20 µM | 9270 nM | COc1ccc(-c2nc3cnc(NCC(F)(F)F)nc3n(-c3ccc(Cl)cc3)c2=O)cc1 | >2.2 |  |  |
| 108 nM and 23.1 nM | 9.74 µM | 300 nM | O=c1c(-c2ccc3ncn(C4CCCC4)c3c2)nc2cnc(NCC(F)(F)F)nc2n1-c1ccc(OC(F)F)cc1 | 32.5 |  |  |
| 104 nM | > 20 µM | 3080 nM | CCOc1ccc2nc(-c3ccc4ncn(C)c4c3)c(=O)n(-c3ccc(OC(F)F)cc3)c2c1 | >6.5 |  |  |
| 151 nM | > 20 µM | 6540 nM | COc1ccc(-c2nc3cnc(NCC(F)(F)F)nc3n(-c3ccc(Br)cc3)c2=O)cc1 | >3.1 |  |  |
| 98.5 nM |  |  | O=c1c(-c2ccc3ncoc3c2)nc2ccc(C3CC3)cc2n1-c1ccc(OC(F)F)cc1 |  |  |  |
| 435 nM |  |  | O=c1c(-c2ccc3ncccc3c2)nc2cnc(NCC(F)(F)F)nc2n1-c1ccc(OC(F)F)cc1 |  |  |  |
| 613 nM |  |  | Cn1cnc2ccc(-c3nc4cnc(C5CC5)cc4n(-c4ccc(OC(F)F)cc4)c3=O)cc21 |  |  |  |
| 49 nM |  |  | Cn1cnc2ccc(-c3nc4cnc(NC5CC5)nc4n(-c4ccc(OC(F)F)cc4)c3=O)cc21 |  |  |  |
| 115 nM | > 20 µM | 14300 nM | O=c1c(-c2ccc3ncnn3c2)nc2ccc(C3CC3)cc2n1-c1ccc(OC(F)F)cc1 | >1.4 |  |  |
| 63.9 nM | > 20 µM | 780 nM | O=c1c(-c2ccc3nccn3c2)nc2ccc(C3CC3)cc2n1-c1ccc(OC(F)F)cc1 | >25.6 |  |  |
| 89.2 nM | 5.26 µM | 760 nM | CC1=Nc2ccc(-c3nc4ccc(C5CC5)cc4n(-c4ccc(OC(F)F)cc4)c3=O)cc2C1(C)C | 6.9 |  |  |
| 64.4 nM | 18.1 µM | 530 nM | Cc1nc2ccc(-c3nc4cnc(NCC(F)(F)F)nc4n(-c4ccc(OC(F)F)cc4)c3=O)cc2n1C | 34.2 |  |  |
